This is an account of results in paper PMC6272448, “Synthesis, ^18F-Radiolabelling and Biological Characterization of Novel Fluoroalkylated Triazine Derivatives for in Vivo Imaging of Phosphodiesterase 2A in Brain via Positron Emission Tomography” (Molecules, 2015).

The target in one data set is human recombinant PDE2A (Homo sapiens, UniProt O00408). Briefly: enzyme assay, inhibitory potency for human recombinant PDE2A. It counts as biochemical. The following applies: for Selectivity Ratio PDE10A/PDE2A: IC50 hPDE10A / IC50 hPDE2A; for pIC50: human recombinant PDE2A, enzyme assay (BioCrea), read-out: IC50 hPDE2A.
In another data set the target is human recombinant PDE10A (Homo sapiens, UniProt Q9Y233). Briefly: enzyme assay, inhibitory potency for human recombinant PDE10A. It counts as biochemical. The following applies: enzyme assay (BioCrea), read-out: IC50 hPDE10A.
A further data set concerns hPDE2A. Conditions: cited from earlier work.
The next data set has as its system hPDE10A. Also noted: method as in PMID 24189054, PMID 23651455. The following applies: cited from earlier work.
On the set-up of data set [1]: method as in PMID 24189054, PMID 23651455. Conditions: monkeys, striatum; cited from earlier work.
Details of data set [2]: method as in PMID 24189054. The following applies: rats, cited from earlier work.

pIC50: −log10 of the molar value. Read-outs that look alike come from different tables or passages of the source.

Sequence of human recombinant PDE10A (Q9Y233 whole entry): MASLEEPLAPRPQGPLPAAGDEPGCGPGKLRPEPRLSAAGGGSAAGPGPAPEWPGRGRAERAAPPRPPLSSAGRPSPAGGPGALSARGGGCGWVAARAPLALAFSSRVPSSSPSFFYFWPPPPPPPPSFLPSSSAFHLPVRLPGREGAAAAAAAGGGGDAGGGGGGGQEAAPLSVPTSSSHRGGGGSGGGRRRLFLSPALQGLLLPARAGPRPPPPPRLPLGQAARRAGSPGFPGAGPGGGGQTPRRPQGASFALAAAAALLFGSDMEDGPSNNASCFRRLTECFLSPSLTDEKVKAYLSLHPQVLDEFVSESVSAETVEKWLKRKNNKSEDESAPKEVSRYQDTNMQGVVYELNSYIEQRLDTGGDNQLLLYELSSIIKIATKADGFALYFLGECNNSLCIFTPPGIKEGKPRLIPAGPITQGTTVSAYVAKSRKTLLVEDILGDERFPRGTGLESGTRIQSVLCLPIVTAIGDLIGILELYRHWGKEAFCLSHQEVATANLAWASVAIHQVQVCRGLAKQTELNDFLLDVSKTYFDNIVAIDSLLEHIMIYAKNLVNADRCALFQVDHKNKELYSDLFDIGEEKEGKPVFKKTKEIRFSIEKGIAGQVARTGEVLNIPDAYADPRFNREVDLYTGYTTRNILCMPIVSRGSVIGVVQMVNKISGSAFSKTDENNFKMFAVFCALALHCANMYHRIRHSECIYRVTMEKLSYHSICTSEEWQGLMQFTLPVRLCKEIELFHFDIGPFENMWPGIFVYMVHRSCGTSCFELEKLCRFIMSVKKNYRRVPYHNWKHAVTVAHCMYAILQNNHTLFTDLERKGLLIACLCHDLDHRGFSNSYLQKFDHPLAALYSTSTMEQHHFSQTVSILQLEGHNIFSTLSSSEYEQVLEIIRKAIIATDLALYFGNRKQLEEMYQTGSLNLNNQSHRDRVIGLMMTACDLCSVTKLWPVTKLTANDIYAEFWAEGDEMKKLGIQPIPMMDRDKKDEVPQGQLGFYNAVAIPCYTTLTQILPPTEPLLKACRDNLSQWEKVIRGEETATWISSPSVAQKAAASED
Sequence of human recombinant PDE2A (O00408 whole entry): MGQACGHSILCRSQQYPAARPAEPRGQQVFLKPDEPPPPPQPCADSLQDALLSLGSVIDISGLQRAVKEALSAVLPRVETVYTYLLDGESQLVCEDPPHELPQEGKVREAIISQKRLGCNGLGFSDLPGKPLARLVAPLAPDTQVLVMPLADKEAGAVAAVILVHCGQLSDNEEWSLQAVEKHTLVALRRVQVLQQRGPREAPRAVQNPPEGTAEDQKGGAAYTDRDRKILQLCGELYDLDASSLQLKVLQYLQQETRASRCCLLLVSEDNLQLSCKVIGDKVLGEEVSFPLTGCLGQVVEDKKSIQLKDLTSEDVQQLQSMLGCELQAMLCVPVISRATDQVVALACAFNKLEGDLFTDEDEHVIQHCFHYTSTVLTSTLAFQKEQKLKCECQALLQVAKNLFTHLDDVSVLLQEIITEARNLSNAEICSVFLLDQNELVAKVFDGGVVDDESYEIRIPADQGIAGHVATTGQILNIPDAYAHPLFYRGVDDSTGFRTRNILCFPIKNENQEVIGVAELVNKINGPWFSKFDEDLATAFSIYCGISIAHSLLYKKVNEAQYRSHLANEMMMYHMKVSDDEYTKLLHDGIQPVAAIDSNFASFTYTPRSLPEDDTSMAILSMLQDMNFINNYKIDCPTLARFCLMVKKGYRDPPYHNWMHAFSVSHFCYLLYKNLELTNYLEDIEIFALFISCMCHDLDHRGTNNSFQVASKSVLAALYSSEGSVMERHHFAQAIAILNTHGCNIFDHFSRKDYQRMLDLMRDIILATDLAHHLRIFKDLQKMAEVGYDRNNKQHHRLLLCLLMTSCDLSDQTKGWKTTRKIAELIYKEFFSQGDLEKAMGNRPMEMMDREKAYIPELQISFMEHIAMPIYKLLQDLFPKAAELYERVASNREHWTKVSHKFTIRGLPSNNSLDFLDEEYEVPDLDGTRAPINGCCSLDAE
Source text for human recombinant PDE10A: (§1) The IC50 values obtained by this assay represent relative measures of the respective target affinity of the compounds.
Source text for human recombinant PDE2A: as §1

In general, pIC50 refers to −log10 of the IC50, conventionally taken in molar units. `COc1ccc2nnc3c(C)nc(-c4cc(OCCF)ccc4F)n3c2n1` [TA2, 9-(2-Fluoro-5-(2-fluoroethoxy)phenyl)-2-methoxy-7-methylimidazo[5,1-c]pyrido[2,3-e] [1,2,4]triazine]: at human recombinant PDE2A, the “Selectivity Ratio PDE10A/PDE2A” value is 7.4 and the pIC50 is 7.98. Besides, the pIC50 at human recombinant PDE10A was 7.11.
For the compound `Cc1nc(-c2cnn(C)c2-c2ccc(C(F)(F)F)cc2)c2c(N3CC([18F])C3)ncnn12` [[^18F]PF-05270430], the pIC50 was 9.30 with hPDE2A (Pfizer PET ligand) and 5.52 with hPDE10A. Also, the “uptake in PET studies” value in data set [1] was “rapid and high uptake”.
For `COc1ccc2nnc3c(C)nc(-c4cc(OCCCF)ccc4F)n3c2n1` [TA3], at human recombinant PDE2A, the “Selectivity Ratio PDE10A/PDE2A” value is listed as 27.9. The pIC50 was 7.94 at human recombinant PDE2A and 6.50 at human recombinant PDE10A.
As for `COc1ccc(Cc2nn3c(C(CCCc4ccccc4)C(C)O)nc(C)c3c(=O)[nH]2)cc1OC` (centres unmarked) [BAY 60-7550], the pIC50 in the data set with hPDE2A (Figure 1) is ~8.30.
For the compound `Cc1nc2ccc(CN3CCOCC3)cc2n2c(-c3c([18F])cccc3Cl)nnc12` [[^18F]B-23], the “radiometabolites detected in the brain” value in data set [2] (at 2 min p.i.) is recorded as 4 % of total activity; in data set [2] (at 10 min p.i.), 10 % of total activity. Further, the “regional accumulation in microPET imaging” value in data set [2] was “highest accumulation of [^18F]B-23 has been observed in the striatum”.
For the compound `CCCCCCC(C(C)O)n1cnc2c(N)ncnc21` (stereo not drawn) [EHNA, erythro-9-(2-hydroxy-3-nonyl)-adenine], the pIC50 in the data set on hPDE2A (Figure 1) was ~6.00.
Take `COc1ccc2nnc3c(C)nc(-c4cc(OCCCCF)ccc4F)n3c2n1` [TA4]: at human recombinant PDE2A, the “Selectivity Ratio PDE10A/PDE2A” value stood at 125.1 and the pIC50 was 8.14. Further, the pIC50 on human recombinant PDE10A is 6.04.
